In patent publication US6872805B2 (Bristol-Myers Squibb Company, priority 2000, dated 2005):
Like-named read-outs stand apart in the source and are kept apart here.

Tests used:
[1] = target: T1, bovine pancreatic α-chymotrypsin (Bos taurus, UniProt P00766); assay: Specificity assay, bovine pancreatic α-chymotrypsin; type: biochemical
T1 construct: from tissue; host or cells: pancreas (from the enzyme's name only)
Method: The specificities of compounds of the present invention were determined against a variety of serine proteases: human leukocyte elastase, porcine pancreatic elastase and bovine pancreatic α-chymotrypsin and one cysteine protease: human liver cathepsin B. In all cases a 96-well plate format protocol using calorimetric […] (pNA) substrate specific for each enzyme was used as described previously (Patent WO 00/09543) with some modifications.
Each assay included a 1 h enzyme-inhibitor pre-incubation at RT followed by addition of substrate and hydrolysis to ˜30% conversion as measured on a Spectramax Pro microplate reader. Compound concentrations varied from 100 to 0.4 μM depending on their potency.
The final conditions and protocol for each assay was as reported previously (Patent WO 00/09543) with the inclusion of an additional assay: • 50 mM Tris-HCl pH 8, 0.5M Na2SO4, 50 mM NaCl, 0.1 mM EDTA, 3% DMSO, 0.01% Tween-20 with 133 μM succ-AAA-PNA and 20 nM Elastase
The percentage of inhibition was calculated using the formula: [1−((UVinh−UVblank)/(UVctl−UVblank))]×100

[2] = system: HCV replicon in Huh7 cells; assay: HCV replicon cell-based assay; parameters: species or system HCV strain 1B; conditions: Hepatitis C virus, HCV replicon, Huh7 cells
Procedure, shortened: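 Genotype 1b subgenomic replicon Huh7 cells exposed to compound 4 days at 37° C in 4% FCS, 0.5% DMSO medium. EC50 from TaqMan RT-PCR of HCV RNA, normalized to total RNA by RiboGreen; CC50 from alamar Blue fluorescence after 4 h.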

With C=CC1C[C@]1(NC(=O)[C@@H]1C[C@@H](Oc2cc(-c3ccccc3)nc3cc(OC)ccc23)CN1C(=O)C(NC(=O)OC(C)(C)C)C(C)(C)C)C(=O)NS(=O)(=O)c1ccc(NC(C)=O)cc1 (stereo partly drawn) [Compound 58] the IC50 [1] was over 100000 nM, the EC50 ([2]; Huh-7, 96 h, 4 days, activity ranges, read-out: EC50) was under 500 nM and the EC50 ([2]; Huh-7, read-out: EC50 value in the replicon assay) was 250 nM.
